Assays:
cells = details: Homo sapiens, HCT-116, 24 h
Description: Inhibition of Wnt/beta-catenin signaling pathway in human HCT-116 cells assessed as reduction in Axin2 expression incubated for 24 hrs by qPCR analysis

in vitro [1] = details: mouse, liver microsomes
Description: Metabolic stability in mouse liver microsome assessed as clearance preincubated with compound for 10 mins followed by NADPH addition and measured upto 60 mins by LC-MS/MS analysis

in vitro [2] = details: mouse, liver microsomes; remark: listed apart in the source
Description: Metabolic stability in mouse liver microsome assessed as half life preincubated with compound for 10 mins followed by NADPH addition and measured upto 60 mins by LC-MS/MS analysis

CT26 [3] = experiment: Antitumor activity against mouse CT26 cells implanted in BALB/c mouse assessed as tumor growth inhibition at 30 mg/kg, ip measured for 7 days; details: CT26, 168 h, read-out: TGI
CT26 [4] = experiment: Antitumor activity against mouse CT26 cells implanted in BALB/c mouse assessed as tumor growth inhibition at 30 mg/kg, ip measured for 14 days; type: functional; details: CT26, 336 h, time 14 day, read-out: TGI
CT26 [5] = experiment: Antitumor activity against mouse CT26 cells implanted in BALB/c mouse assessed as increase in CD103+ expression level at 30 mg/kg, ip measured for 7 days by flow cytometry analysis (reference value: 4.95%); type: functional; details: time 7 day
[6] = Antitumor activity against mouse PBMC cells implanted in BALB/c mouse assessed as increase in CD103 + XCR1 cDC1 expression at 30 mg/kg, ip measured for 7 days by qPCR analysis; type: functional; details: time 7 day
Catenin beta-1 = target: T1, Catenin beta-1 (Homo sapiens, UniProt P35222); experiment: Binding affinity to full length his-tagged human beta-catenin (1 to 781 residues) expressed in Escherichia coli DE3 assessed as dissociation constant by SPR analysis
T1 sequence (P35222 whole entry): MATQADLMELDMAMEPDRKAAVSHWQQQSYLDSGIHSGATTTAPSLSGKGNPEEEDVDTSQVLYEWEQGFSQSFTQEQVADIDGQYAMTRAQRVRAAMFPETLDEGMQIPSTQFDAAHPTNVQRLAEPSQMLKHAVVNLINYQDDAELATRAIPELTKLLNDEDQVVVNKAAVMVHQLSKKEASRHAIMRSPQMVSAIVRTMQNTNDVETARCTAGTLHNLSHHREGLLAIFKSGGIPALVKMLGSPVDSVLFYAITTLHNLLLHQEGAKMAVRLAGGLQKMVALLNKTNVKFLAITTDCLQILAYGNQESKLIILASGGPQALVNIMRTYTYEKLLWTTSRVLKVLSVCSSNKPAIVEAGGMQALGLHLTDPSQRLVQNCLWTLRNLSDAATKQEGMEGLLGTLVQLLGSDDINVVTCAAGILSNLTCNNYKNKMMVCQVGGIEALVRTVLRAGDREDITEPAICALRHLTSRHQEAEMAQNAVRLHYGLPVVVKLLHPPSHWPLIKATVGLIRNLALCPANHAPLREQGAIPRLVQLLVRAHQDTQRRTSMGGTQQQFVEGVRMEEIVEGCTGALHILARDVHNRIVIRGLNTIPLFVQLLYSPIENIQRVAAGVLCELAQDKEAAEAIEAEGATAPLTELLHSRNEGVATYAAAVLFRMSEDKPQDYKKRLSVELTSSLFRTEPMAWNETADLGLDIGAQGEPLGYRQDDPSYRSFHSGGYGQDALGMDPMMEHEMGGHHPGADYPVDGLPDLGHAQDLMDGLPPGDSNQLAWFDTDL

[7] = target: T2, beta-catenin-B-cell lymphoma 9 protein complex (Homo sapiens, UniProt P35222); experiment: Inhibition of full length his-tagged human beta-catenin (1 to 781 residues) expressed in Escherichia coli DE3/N-terminal FAM-tagged human BCL9 (350 to 375 residues) protein-protein interaction incubated for 2 hrs by fluorescence polarization assay
T2 sequence (P35222 whole entry): T1 sequence (P35222 whole entry)
T2 sequence (O00512 whole entry): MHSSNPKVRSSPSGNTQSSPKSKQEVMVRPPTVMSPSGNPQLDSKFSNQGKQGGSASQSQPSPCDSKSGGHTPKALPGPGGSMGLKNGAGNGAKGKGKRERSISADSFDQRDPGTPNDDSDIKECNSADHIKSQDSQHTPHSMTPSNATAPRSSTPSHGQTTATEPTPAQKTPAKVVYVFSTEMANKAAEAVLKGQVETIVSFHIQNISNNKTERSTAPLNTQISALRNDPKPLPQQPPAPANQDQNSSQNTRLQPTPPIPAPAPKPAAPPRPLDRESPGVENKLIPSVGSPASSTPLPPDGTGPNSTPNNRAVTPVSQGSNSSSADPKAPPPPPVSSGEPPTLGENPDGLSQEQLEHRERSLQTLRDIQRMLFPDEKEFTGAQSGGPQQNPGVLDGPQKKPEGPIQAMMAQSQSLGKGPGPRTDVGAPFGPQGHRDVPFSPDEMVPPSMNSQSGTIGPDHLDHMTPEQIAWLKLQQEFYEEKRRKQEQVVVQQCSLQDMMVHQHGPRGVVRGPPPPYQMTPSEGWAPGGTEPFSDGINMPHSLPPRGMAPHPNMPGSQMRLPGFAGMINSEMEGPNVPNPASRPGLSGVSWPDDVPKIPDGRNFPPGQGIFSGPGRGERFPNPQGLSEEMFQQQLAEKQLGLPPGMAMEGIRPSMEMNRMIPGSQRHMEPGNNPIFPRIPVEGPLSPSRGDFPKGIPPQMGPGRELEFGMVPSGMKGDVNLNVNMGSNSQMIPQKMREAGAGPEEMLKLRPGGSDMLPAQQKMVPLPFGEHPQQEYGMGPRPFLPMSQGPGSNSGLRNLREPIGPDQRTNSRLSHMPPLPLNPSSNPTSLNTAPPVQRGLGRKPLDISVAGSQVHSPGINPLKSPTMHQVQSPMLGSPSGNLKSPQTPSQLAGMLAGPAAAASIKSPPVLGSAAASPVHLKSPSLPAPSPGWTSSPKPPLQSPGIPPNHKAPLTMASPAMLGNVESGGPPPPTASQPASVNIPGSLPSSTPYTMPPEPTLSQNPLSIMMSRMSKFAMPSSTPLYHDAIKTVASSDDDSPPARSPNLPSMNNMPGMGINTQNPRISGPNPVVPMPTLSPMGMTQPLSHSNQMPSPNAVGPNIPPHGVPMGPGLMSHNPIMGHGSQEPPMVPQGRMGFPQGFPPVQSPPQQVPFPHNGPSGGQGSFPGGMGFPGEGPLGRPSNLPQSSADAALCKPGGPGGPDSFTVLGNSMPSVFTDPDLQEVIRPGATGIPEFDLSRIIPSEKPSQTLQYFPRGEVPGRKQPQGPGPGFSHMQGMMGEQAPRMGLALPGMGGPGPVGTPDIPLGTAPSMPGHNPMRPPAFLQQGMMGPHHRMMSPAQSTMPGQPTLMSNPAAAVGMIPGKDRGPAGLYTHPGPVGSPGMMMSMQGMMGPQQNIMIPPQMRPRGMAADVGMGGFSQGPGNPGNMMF

[8] = Toxicity in BALB/c mouse implanted with mouse CT26 cells assessed as body weight loss at 30 mg/kg, ip measured for 14 days; type: organism-based; details: in vivo, 336 h, time 14 day
[9] = Clearance in ICR mouse at 1 mg/kg, iv measured upto 24 hrs by HPLC-MS/MS analysis; type: ADME, organism-based; details: in vivo
[10] = Half life in ICR mouse at 1 mg/kg, iv measured upto 24 hrs by HPLC-MS/MS analysis; type: ADME, organism-based; details: in vivo
[11] = Cmax in ICR mouse at 1 mg/kg, iv measured upto 24 hrs by HPLC-MS/MS analysis; type: ADME, organism-based; details: in vivo
[12] = Tmax in ICR mouse at 1 mg/kg, iv measured upto 24 hrs by HPLC-MS/MS analysis; type: ADME, organism-based; details: in vivo
[13] = AUC (0 to t) in ICR mouse at 1 mg/kg, iv measured upto 24 hrs by HPLC-MS/MS analysis; type: ADME, organism-based; details: in vivo
[14] = target: T2, beta-catenin-B-cell lymphoma 9 protein complex; experiment: Inhibition of beta-catenin (unknown origin)/BCL9 (unknown origin) protein-protein interaction; type: protein-complex assay

SMILES	IC50 (cells) [µM]	Kd (Catenin beta-1) [µM]	IC50 [7] [µM]	further results
O=C1[C@H](Cc2ccc(O)cc2)N2C(=O)CCN(C(=O)NCc3ccccc3)[C@H]2CN1Cc1cccc2ccccc12	3.34	–	–	–
CC(C)(Oc1cccc(N2CCC[C@@H](C(=O)N(Cc3ccc(-c4cn[nH]c4)cc3)C3CC3)C2)c1)C(=O)N1CCNCC1	3.34	–	–	microsomal CLint at 1 h (in vitro [1]): 888 µL/min/mg; half-life at 1 h (in vitro [2]): 2.37 min; inhibition in vivo at 30 mg/kg (CT26 [3]): 44.1%; inhibition in vivo at 30 mg/kg (CT26 [4]): 42.4%; Activity (CT26 [5]): 14.9%; Activity [6]: 5.17%
CC(C)(Oc1cccc(N2CCC[C@H](NC(=O)N(Cc3ccc(-c4cn[nH]c4)cc3)C3CC3)C2)c1)C(=O)N1CCNCC1	4.35	–	–	–
CC(C)(Oc1cccc(N2CCC[C@@H](NC(=O)N(Cc3ccc(-c4cn[nH]c4)cc3)C3CC3)C2)c1)C(=O)NCC(=O)N1CCCC1CCN (stereo partly specified)	4.45	0.082	3.92	–
CC(C)(Oc1cccc(N2CCC[C@@H](NC(=O)N(Cc3ccc(-c4cn[nH]c4)cc3)C3CC3)C2)c1)C(=O)NCCN	2.54	0.25	> 20	–
CC(C)(Oc1cccc(N2CCC[C@H](NC(=O)N(Cc3ccc(-c4cn[nH]c4)cc3)C3CC3)C2)c1)C(=O)N1CCOCC1	8.24	–	–	–
CC(C)(Oc1cccc(N2CCC[C@@H](NC(=O)N(Cc3ccc(-c4cn[nH]c4)cc3)C3CC3)C2)c1)C(=O)NCCCN	2.88	–	–	Activity [8]: Non-Toxic; clearance [9]: 40 mL/min/kg; microsomal CLint at 1 h (in vitro [1]): 67 µL/min/mg; half-life [10]: 40.2 min; Cmax [11]: 910 ng/mL; half-life at 1 h (in vitro [2]): 31.5 min; Tmax [12]: 4.8 min; AUC(0-t) at 24 h [13]: 430 ng·h/mL; inhibition in vivo at 30 mg/kg (CT26 [4]): 56.4%
CC(C)(Oc1cccc(N2CCC[C@H](NC(=O)N(Cc3ccc(-c4cn[nH]c4)cc3)C3CC3)C2)c1)C(=O)NCCN	7.5	0.25	1.83	–
CC(C)(Oc1cccc(N2CCC[C@H](NC(=O)N(Cc3ccc(-c4cn[nH]c4)cc3)C3CC3)C2)c1)C(=O)NCC(=O)N1CCCC1CCN (stereo partly specified)	5.3	0.64	2.06	–
CC(C)(Oc1cccc(N2CCC[C@@H](NC(=O)N(Cc3ccc(-c4cn[nH]c4)cc3)C3CC3)C2)c1)C(=O)N1CCNCC1	4.67	–	–	–
CC(C)(Oc1cccc(N2CCC[C@H](NC(=O)N(Cc3ccc(-c4cn[nH]c4)cc3)C3CC3)C2)c1)C(=O)NCCCN	> 10	–	–	–
CC(C)(Oc1cccc(N2CCC[C@@H](NC(=O)N(Cc3ccc(-c4cn[nH]c4)cc3)C3CC3)C2)c1)C(=O)N1CCOCC1	5.41	–	–	–
CCCC(=O)Oc1ccc([N+](=O)[O-])cc1	–	–	–	Ki [14]: 2.1 µM

From ChEMBL document CHEMBL5550183, “Discovery of Novel 1-Phenylpiperidine Urea-Containing Derivatives Inhibiting β-Catenin/BCL9 Interaction and Exerting Antitumor Efficacy through the Activation of Antigen Presentation of cDC1 Cells” (J Med Chem, 2024)
